The values that follow are results of earlier work, collected in patent US20090075956A1 (priority 2005, published 2009).

Each structure is given as a SMILES string. Where a name gives a salt, the structure may show the parent alone.

Regarding `NNc1nncc2ccccc12` [Hydralazine hydrochloride, hydralazine hydrochloride], the solubility in water result is given as “soluble”. Besides, for the setting “alcohol”, the solubility in alcohol entry is on record as “slightly soluble”. Besides, where the note is “ether”, the solubility in ether result is “very slightly soluble”.

For `O=[N+]([O-])O[C@H]1CO[C@H]2[C@@H]1OC[C@H]2O[N+](=O)[O-]` [Diluted isosorbide dinitrate, 1,4,3,6-dianhydro-D-glucitol-2,5-dinitrate], the solubility in water entry was “sparingly soluble”. In addition, where the note is “organic solvents such as ethanol, ether and chloroform”, the “solubility in organic solvents” value was “freely soluble”.
